# Measured values: patent publication US8710298B2, “Heat stable variants of plant adenosine diphosphate glucose pyrophosphorylase small subunit” (University of Florida Research Foundation, Inc., priority 2003, dated 2014)
# Experiments:
# [1] = target: T1, maize endosperm ADP-glucose pyrophosphorylase (AGP), wild type (small subunit BT2 WT-STYL, SEQ ID NO: 2, with wild type large subunit Shrunken-2) (Zea mays, UniProt P55241+Q947C0)
# T1 sequence (Q947C0 1-475): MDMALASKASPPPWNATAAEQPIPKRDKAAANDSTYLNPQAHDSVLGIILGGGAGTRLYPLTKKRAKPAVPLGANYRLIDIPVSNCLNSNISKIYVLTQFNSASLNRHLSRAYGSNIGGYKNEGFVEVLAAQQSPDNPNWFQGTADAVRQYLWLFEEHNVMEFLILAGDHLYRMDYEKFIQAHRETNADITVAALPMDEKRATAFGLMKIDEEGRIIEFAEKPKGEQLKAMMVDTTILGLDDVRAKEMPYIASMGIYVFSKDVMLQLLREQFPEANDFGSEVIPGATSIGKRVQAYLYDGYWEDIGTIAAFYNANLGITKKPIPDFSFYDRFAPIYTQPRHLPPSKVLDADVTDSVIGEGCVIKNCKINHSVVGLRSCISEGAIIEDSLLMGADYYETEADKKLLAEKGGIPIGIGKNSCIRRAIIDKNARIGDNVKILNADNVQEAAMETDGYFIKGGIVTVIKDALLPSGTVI
# T1 sequence (P55241 46-516): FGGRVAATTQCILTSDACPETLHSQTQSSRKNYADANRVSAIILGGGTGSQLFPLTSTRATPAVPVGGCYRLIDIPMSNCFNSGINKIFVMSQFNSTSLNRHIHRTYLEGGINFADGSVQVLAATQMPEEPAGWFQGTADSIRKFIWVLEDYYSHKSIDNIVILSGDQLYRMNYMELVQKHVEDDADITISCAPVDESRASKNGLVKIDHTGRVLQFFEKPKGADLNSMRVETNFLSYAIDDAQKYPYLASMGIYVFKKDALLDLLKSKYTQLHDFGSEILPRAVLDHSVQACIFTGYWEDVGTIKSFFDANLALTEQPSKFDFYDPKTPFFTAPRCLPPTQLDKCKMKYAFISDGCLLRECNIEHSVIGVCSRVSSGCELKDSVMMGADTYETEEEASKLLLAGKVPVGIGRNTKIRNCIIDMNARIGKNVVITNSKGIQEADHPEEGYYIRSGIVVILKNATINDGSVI
# Description: E. coli strain AC70R1-504, which lacks the functional AGP gene and cannot synthesize glycogen, was transformed with both pMoncSh2 and pMoncBt2 (plasmids containing the large and small subunit of wt-AGP respectively). An overnight culture was grown with constant shaking at 225 rpm at 37° C. in LB media containing 75 ug/ml spectinomycin and 50 μg/ml kanamycin. An aliquot of the overnight culture (12.5 ml) was used to inoculate a 1 L flask containing the same media. The 1 L flask was grown until the OD600 reached 0.5-0.6. The cultures were cooled to room temperature and protein expression was induced by the addition of 0.2 mM isopropyl-beta-D-thiogalactoside (IPTG) and 0.02 mg/ml nalidixic acid. Expression continued for 3 hours at room temperature with constant shaking. Cells were centrifuged at 8000×g supernatant removed and stored as pellets at −80° C.
# The 3-Phosphoglyceric acid (3-PGA) was added at varying amounts, as specified. When varied, the substrates ranged from 0-5 mM. Reactions were terminated after 5 minutes by boiling in a water bath for 1 minute. […] The change in absorbance between the blank and the reaction was used to calculate the amount to PPi produced for each sample. All reactions were linear with time and enzyme concentration. All assay tubes were pre-warmed to 37° C. prior to assaying and were initiated by the addition of enzyme. […]
# [2] = target: T2, maize endosperm ADP-glucose pyrophosphorylase (AGP) variant QTCL (small subunit BT2 with tyrosine 36 to cysteine and glutamine inserted between serine 34 and th (Zea mays, UniProt P55241+Q947C0, INS34Q/Y36C)); assay: Enzyme kinetics (substrates), forward reaction, purified QTCL AGP; type: biochemical
# T2 construct: purified heterotetramer
# T2 sequence (Q947C0 with tags, fused parts or gaps INS34Q/Y36C): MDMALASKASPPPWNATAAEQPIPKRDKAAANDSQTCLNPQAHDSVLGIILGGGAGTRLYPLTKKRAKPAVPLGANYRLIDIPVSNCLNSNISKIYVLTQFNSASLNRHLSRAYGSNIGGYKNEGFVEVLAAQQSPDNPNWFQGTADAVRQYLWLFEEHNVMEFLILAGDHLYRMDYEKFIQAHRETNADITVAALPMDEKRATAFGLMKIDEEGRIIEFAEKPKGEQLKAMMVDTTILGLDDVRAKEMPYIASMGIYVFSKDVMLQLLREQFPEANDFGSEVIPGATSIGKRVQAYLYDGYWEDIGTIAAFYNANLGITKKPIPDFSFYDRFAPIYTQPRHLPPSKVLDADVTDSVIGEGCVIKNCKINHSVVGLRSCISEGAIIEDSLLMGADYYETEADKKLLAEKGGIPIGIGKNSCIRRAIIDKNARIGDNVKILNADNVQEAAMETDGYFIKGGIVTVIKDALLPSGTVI
# T2 sequence (P55241 46-516): T1 sequence (P55241 46-516)
# Description: The QTCL construct (SEQ ID NO:7) encodes a maize AGP small subunit protein (SEQ ID NO:8) having a change from a tyrosine at amino acid position 36 to a cysteine and an insertion of a glutamine between the serine at amino acid position 34 and the threonine at amino acid position 35. […] The mutations were verified by sequence analysis.
# (§1) Protein inductions were as described by Greene and Hannah (1998) with a few modifications.
# (§2) The 3-Phosphoglyceric acid (3-PGA) was added at varying amounts, as specified. When varied, the substrates ranged from 0-5 mM. Reactions were terminated after 5 minutes by boiling in a water bath for 1 minute. […] The change in absorbance between the blank and the reaction was used to calculate the amount to PPi produced for each sample. All reactions were linear with time and enzyme concentration. All assay tubes were pre-warmed to 37° C. prior to assaying and were initiated by the addition of enzyme.
# The QTCL mutant and wild type enzymes were purified from E. coli as described in the materials and methods.
# [3] = test system: maize endosperm ADP-glucose pyrophosphorylase (AGP) variant QTCL (small subunit BT2 with tyrosine 36 to cysteine and glutamine inserted between serine 34 and …); assay: Activation and inhibition (Assay C, forward direction), QTCL AGP; type: biochemical, maize (Zea mays); settings: QTCL compared to wild type AGP
# Description: (§3) The QTCL construct (SEQ ID NO:7) encodes a maize AGP small subunit protein (SEQ ID NO:8) having a change from a tyrosine at amino acid position 36 to a cysteine and an insertion of a glutamine between the serine at amino acid position 34 and the threonine at amino acid position 35.
# as §2
# [4] = target: T2, maize endosperm ADP-glucose pyrophosphorylase (AGP) variant QTCL (small subunit BT2 with tyrosine 36 to cysteine and glutamine inserted between serine 34 and th); assay: as above; type: biochemical; settings: QTCL; effector varied 0-3 mM, 37° C., 10 minutes
# Description: as §3, §2
# [5] = target: T1, maize endosperm ADP-glucose pyrophosphorylase (AGP), wild type (small subunit BT2 WT-STYL, SEQ ID NO: 2, with wild type large subunit Shrunken-2); settings: effector varied 0-3 mM, 37° C., 10 minutes
# Description: as §1, §2
# To determine the extent of activation with or with out 3-PGA, 0.1 or 2.0 μg respectively, of purified maize wt-AGP was incubated for 12.5 minutes in the forward assay. To determine the activation constant for the maize wt AGP, 0.2 μg of purified maize wt-AGP was incubated for 12.5 minutes in the forward assay. 3-PGA concentrations ranged from 0-5.0 mM. Curves were fit using Graph Pad Prism using non-linear regression.
Structure (SMILES),"Vmax (ATP) ([1]; forward reaction, 10 mM 3-PGA, 37° C., 10 minutes) [µmol/min/mg]","Km ([1]; read-out: Km for ATP, forward reaction, 10 mM 3-PGA, 37° C., 10 minutes) [µM]","Vmax (ATP) ([2]; 10 mM 3-PGA, 37° C., 10 minutes) [µmol/min/mg]","Km ([2]; read-out: Km for ATP, 10 mM 3-PGA, 37° C., 10 minutes) [µM]","Ka for the QTCL enzyme, fold higher than wild type AGP [3]",Ka (3-PGA) [4],Ka (3-PGA) [5]
Nc1ncnc2c1ncn2[C@@H]1O[C@H](COP(=O)(O)OP(=O)(O)OP(=O)(O)O)[C@@H](O)[C@H]1O [ATP],9.25 ± 0.32,66 ± 10,23.4 ± 0.53,140 ± 10,,,
"O=C(O)[C@H](O)COP(=O)(O)O [3-PGA, 3-phosphoglyceric acid]",,,,,approximately 2 -fold,1.08 ± 0.13,0.57 ± 0.055
